Data as given in publication PMC7422721 (ACS chemical biology, 2019).

Legend:
RNF4 [1] = molecular target: T1, RNF4 (Homo sapiens, UniProt P78317); test: LC-MS/MS of covalent adduct on purified RNF4; format: binding
T1 sequence (P78317 1-190): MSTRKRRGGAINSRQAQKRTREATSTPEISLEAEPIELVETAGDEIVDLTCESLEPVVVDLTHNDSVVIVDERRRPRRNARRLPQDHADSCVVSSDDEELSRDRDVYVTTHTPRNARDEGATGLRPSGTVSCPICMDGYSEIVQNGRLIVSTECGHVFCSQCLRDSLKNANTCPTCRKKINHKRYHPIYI

RNF4 [2] = molecular target: T1, RNF4; test: competitive gel-based ABPP against IA-rhodamine labeling of pure RNF4; format: binding

| IC50 (RNF4 [1]) | IC50 (RNF4 [2]) [nM] | Compound |
| --- | --- | --- |
| double digit micromolar |  | TRH 1–23 [TRH 1-23] |
|  | 540 | Cc1sc2c(c1C)C(c1ccc(Cl)cc1)=N[C@@H](CC(=O)NCCCCOc1ccc(Oc3ccc(N(Cc4ccccc4)C(=O)CCl)cc3)cc1)c1nnc(C)n1-2 [CCW 28-3, CCW 28–3] |
